# Results reported in patent publication US20240383932A1, “Phenol Prodrugs” (Lilac Therapeutics, Inc., priority 2023, published 2024).
# Read-outs that look alike come from different tables or passages of the source.
# What was measured:
# [1] = Pharmacokinetics after single dose oral administration in rats; assay type: in vivo, male Sprague Dawley rats; conditions: rat; for half-life: po, 50 mg/kg
# Experimental: The pharmacokinetics of ivacaftor (50 mg/kg in organic and 0.25% Methyl Cellulose in water suspension) in male Sprague Dawley rats after single dose oral administration and compound 15 in 0.25% Methyl Cellulose in water suspension at 108 mg-eq/kg (50 mg/kg equivalent to free base) 324 mg-eq/kg (150 mg/kg equivalent to free base) 540 mg-eq/kg (250 mg/kg equivalent to free base) and 756 mg-eq/kg (350 mg/kg equivalent to free base) were investigated. […] The plasma concentration vs. time profile for these experiments are show in FIG. 3.
# [2] = Solubility in various buffers; assay type: physicochemical; conditions: for pH: pH of solubility sample
# Experimental: The solubility of crystalline compound 15 was measured in the various buffers.
# [3] = male, Sprague Dawley, plasma, ivacaftor 50 mg/kg, Crystalline Suspension (0.25% Methyl Cellulose in water)
smiles,measurement,setting,value
CC(C)OC(=O)[C@H](C)N[P@@](=O)(OCCN1CCOCC1)Oc1cc(NC(=O)c2c[nH]c3ccccc3c2=O)c(C(C)(C)C)cc1C(C)(C)C.O=C(O)CCC(=O)O [Compound 15],"dose dependence of exposure of ivacaftor, in words","[1]; crystalline aqueous suspension, dosed up to 350 mg/kg",dose proportional increase in the exposure of ivacaftor
same,"reduction in AUC with crystalline aqueous suspension, in words",[1]; dosed up to 350 mg/kg,such reduction was not observed
same,Observation after 24 hrs,[2]; FaSSIF.V2,Suspension
same,"solubility compared with ivacaftor, in words",[2]; FeSSIF and simulated gastric fluid,significant improvement in solubility
same,Observation after 24 hrs,[2]; FeSSIF.V2,Clear
same,Observation after 24 hrs,[2]; SGF,Clear
same,Observation after 24 hrs,[2]; Water,Slightly Hazy
same,solubility,"[2]; aqueous buffer, thermodynamic from solid, pH 6.8 PO4^3− buffer, read-out: Solubility",< 2 µg/mL
same,Observation after 24 hrs,[2]; pH 6.8 PO4^3− buffer,Suspension
same,pH,[2]; FaSSIF.V2,6.09
same,pH,[2]; FeSSIF.V2,5.83
same,pH,[2]; SGF,1.96
same,pH,[2]; Water,3.57
same,pH,[2]; pH 6.8 PO4^3− buffer,6.71
same,solubility,"[2]; simulated gastric fluid, thermodynamic from solid, SGF, read-out: Solubility",1430 µg/mL
same,solubility,"[2]; thermodynamic from solid, FaSSIF.V2, read-out: Solubility",86 µg/mL
same,solubility,"[2]; thermodynamic from solid, FeSSIF.V2, read-out: Solubility",1810 µg/mL
same,solubility,"[2]; water, thermodynamic from solid, read-out: Solubility",787 µg/mL
"CC(C)(C)c1cc(C(C)(C)C)c(NC(=O)c2c[nH]c3ccccc3c2=O)cc1O [ivacaftor, N-(2,4-di-tert-butyl-5-hydroxyphenyl)-4-oxo-1,4-dihydroquinoline-3-carboxamide, reference compound]",AUC(0-t),[1]; [3],14600 ng·h/mL
same,Cmax,[1]; [3],586 ng/mL
same,half-life,"[1]; male, Sprague Dawley, plasma, Organic Solution",10 h
same,half-life,[1]; [3],20 h
same,"reduction in AUC, crystalline suspension vs organic solution formulation",[1]; ivacaftor 50 mg/kg,92%
same,solubility,"[2]; FaSSIF.V2, fassif, thermodynamic from solid, read-out: Solubility",15 µg/mL
same,solubility,"[2]; FeSSIF.V2, fessif, thermodynamic from solid, read-out: Solubility",152 µg/mL
same,solubility,"[2]; FeSSIF.V2, ivacaftor as SDD, read-out: Solubility",600 µg/mL
same,solubility,"[2]; SGF, simulated gastric fluid, thermodynamic from solid, read-out: Solubility",21 µg/mL
same,solubility,[2]; Water,7 µg/mL
same,pH,[2]; FaSSIF.V2,6.35
same,pH,[2]; FeSSIF.V2,5.91
same,pH,[2]; SGF,2.20
same,pH,[2]; Water,7.35
same,pH,[2]; pH 6.8 PO4^3− buffer,6.71
same,solubility,"[2]; phosphate buffer, aqueous buffer, thermodynamic from solid, pH 6.8 PO4^3− buffer, read-out: Solubility",8 µg/mL
